Experimental data published in patent US10800725B2, “Arylpropionyl-triketone antibacterial agents” (priority 2010, dated 2020).
≈ marks a conversion by molar mass, not a printed value.

How the values were obtained:
[1] = test system: Staphylococcus aureus BAA-1707 MRSA (MW2); test: MIC, spiral gradient endpoint assay; conditions: read-out: MIC S. aureus MRSA 1707
[2] = target: M. tuberculosis RNA polymerase core enzyme + σA (Mycobacterium tuberculosis (strain ATCC 25618 / H37Rv), UniProt P9WGY7+P9WGY9); test: Fluorescence-detected RNA polymerase assay, M. tuberculosis RNAP; assay type: biochemical
Method: (§1) Fluorescence-detected RNA polymerase assays with E. coli RNA polymerase were performed by a modification of the procedure of Kuhlman et al., 2004 [Kuhlman, P., Duff, H. & Galant, A. (2004) A fluorescence-based assay for multisubunit DNA-dependent RNA polymerases. Anal. Biochem. 324, 183-190]. Reaction mixtures contained (20 μl): 0-100 nM test compound, 75 nM E. coli RNA polymerase σ^70 holoenzyme, 20 nM 384 bp DNA fragment containing the bacteriophage T4 N25 promoter, 100 μM ATP, 100 μM GTP, 100 μM UTP, 100 μM CTP, 50 mM Tris-HCl, pH 8.0, 100 mM KCl, 10 mM MgCl2, 1 mM DTT, 10 μg/ml bovine serum albumin, and 5.5% glycerol. Reaction components other than DNA and NTPs were pre-incubated for 10 min at 37° C. Reactions were carried out by addition of DNA and incubation for 5 min at 37° C., followed by addition of NTPs and incubation for 60 min at 37° C. DNA was removed by addition of 1 μl 5 mM CaCl2 and 2 U DNaseI (Ambion, Inc.), followed by incubation for 90 min at 37° C. RNA was quantified by addition of 100 μl RiboGreen RNA Quantitation Reagent (Invitrogen, Inc.; 1:500 dilution in Tris-HCl, pH 8.0, 1 mM EDTA), followed by incubation for 10 min at 25° C., followed by measurement of fluorescence intensity [excitation wavelength=485 nm and emission wavelength=535 nm; QuantaMaster QM1 spectrofluorometer (PTI, Inc.)]. IC50 is defined as the concentration of inhibitor resulting in 50% inhibition of RNA polymerase activity.
(§2) Fluorescence-detected RNA polymerase assays with M. tuberculosis RNA polymerase were performed as in Example 21.1, using reaction mixtures containing (20 μl): 0-100 nM test compound, 75 nM M. tuberculosis RNA polymerase core enzyme, 300 nM M. tuberculosis σ^A, 20 nM 384 bp DNA fragment containing the bacteriophage T4 N25 promoter, 100 μM ATP, 100 μM GTP, 100 μM UTP, 100 μM CTP, 40 mM Tris-HCl, pH 8.0, 80 mM NaCl, 5 mM MgCl2, 2.5 mM DTT, and 12.7% glycerol. IC50 is defined as the concentration of inhibitor resulting in 50% inhibition of RNA polymerase activity.

[3] = test system: Streptococcus pyogenes ATCC 12344; test: MIC, spiral gradient endpoint assay (GC II agar, 5% CO2); conditions: ATCC12344, read-out: MIC S. pyogenes 12344
[4] = test system: Staphylococcus aureus ATCC 12600; test: MIC, spiral gradient endpoint assay; conditions: ATCC12600, read-out: MIC S. aureus 12600
[5] = test system: Enterococcus faecalis ATCC 19433; test: MIC, spiral gradient endpoint assay; conditions: ATCC19433, read-out: MIC E. faecalis 19433
[6] = test system: Mycobacterium tuberculosis H37Rv; test: MIC, microplate Alamar Blue assay; conditions: read-out: MIC M. tuberculosis H37Rv
[7] = test system: Francisella tularensis SCHU4; test: microbe, parasite or virus in culture; assay type: cell-based; conditions: SCHU4, read-out: MIC F. tularensis SCHU4
[8] = test system: Staphylococcus aureus BAA-1717 MRSA (USA300); test: MIC, spiral gradient endpoint assay; conditions: read-out: MIC S. aureus MRSA 1717
[9] = test system: Bacillus anthracis Vollum-1b; test: microbe, parasite or virus in culture; assay type: cell-based; conditions: VOLLUM1B, read-out: MIC B. anthracis Vollum-1b
[10] = test system: Enterococcus faecium ATCC 19434; test: MIC, spiral gradient endpoint assay; conditions: ATCC19434, read-out: MIC E. faecium 19434
[11] = target: E. coli RNA polymerase σ70 holoenzyme (Escherichia coli (strain K12), UniProt P0A8T7+P0A8V2); test: Fluorescence-detected RNA polymerase assay, E. coli RNAP; assay type: biochemical
Method: as §1

[12] = test system: Streptococcus pneumoniae ATCC 49619; test: MIC, spiral gradient endpoint assay (GC II agar, 5% CO2); conditions: ATCC49619, read-out: MIC S. pneumoniae 49619
[13] = test system: Escherichia coli D21f2tolC; test: MIC, spiral gradient endpoint assay; conditions: read-out: MIC E. coli D21f2tolC
[14] = test system: Staphylococcus aureus ATCC 13709 MSSA; test: MIC, spiral gradient endpoint assay; conditions: read-out: MIC S. aureus 13709
[15] = test system: Moraxella catarrhalis ATCC 25238; test: MIC, spiral gradient endpoint assay (GC II agar, 5% CO2); conditions: ATCC25238, read-out: MIC M. catarrhalis 25238
[16] = target: S. aureus RNA polymerase core enzyme + σA (Staphylococcus aureus (strain NCTC 8325 / PS 47), UniProt P47768+Q2G0N5); test: Fluorescence-detected RNA polymerase assay, S. aureus RNAP; assay type: biochemical
Method: as §1
as §2, with “S. aureus” for “M. tuberculosis”

Structure (SMILES)	MIC [1] [µg/mL]	IC50 [2] [µM]	MIC [3] [µg/mL]	MIC [4] [µg/mL]	MIC [5] [µg/mL]	MIC [6] [µg/mL]	MIC [7] [µg/mL]	MIC [8] [µg/mL]	MIC [9] [µg/mL]	MIC [10] [µg/mL]	IC50 [11] [µM]	MIC [12] [µg/mL]	MIC [13] [µg/mL]	MIC [14] [µg/mL]	MIC [15] [µg/mL]	IC50 [16] [µM]
CCCCCC1=C(O)C(CCCCC)(CCCCC)C(=O)C(C(=O)CCc2ccccc2)=C1O [Compound 19, 3,5-dihydroxy-2-(3-phenylpropanoyl)-4,6,6-tripentylcyclohexa-2,4-dienone]	0.7 (≈ 1.49 µM)	4.1	15 (≈ 32 µM)	2 (≈ 4.27 µM)	9 (≈ 19.2 µM)	50 (≈ 107 µM)	0.39 (≈ 0.832 µM)	1 (≈ 2.13 µM)	0.049 (≈ 0.105 µM)	2 (≈ 4.27 µM)	7.3	15 (≈ 32 µM)	14 (≈ 29.9 µM)	3 (≈ 6.4 µM)	19 (≈ 40.5 µM)	13
CC(C)CCC1=C(O)C(CCC(C)C)(CCC(C)C)C(=O)C(C(=O)C(C)Cc2ccccc2)=C1O (centres unmarked) [Compound 20, 3,5-dihydroxy-2-(2-methyl-3-phenylpropanoyl)-4,6,6-triisopentylcyclohexa-2,4-dienone]	0.7 (≈ 1.45 µM)	7.3	15 (≈ 31.1 µM)	0.4 (≈ 0.829 µM)	0.7 (≈ 1.45 µM)	50 (≈ 104 µM)	0.78 (≈ 1.62 µM)	0.7 (≈ 1.45 µM)	0.098 (≈ 0.203 µM)	0.6 (≈ 1.24 µM)	12	19 (≈ 39.4 µM)	6 (≈ 12.4 µM)	0.7 (≈ 1.45 µM)	24 (≈ 49.7 µM)	13
